Reference: patent US6723720B2, “Pesticidal triazine-derivatives” (Novartis Animal Health US, Inc., priority 1999, dated 2004)

Fc1cccc(F)c1-c1cnnc(-c2ccc(-c3ccc(OC(F)(F)F)cc3)cc2)n1 [Example 1.6, 5-(2,6-Difluorophenyl)-3-(4′-trifluoromethoxybiphenyl-4-yl)-[1,2,4]triazine]
melting point: 159 to 160 °C
